Data taken from patent US11505558B1, “Antiviral heterocyclic compounds” (Enanta Pharmaceuticals, Inc., priority 2019, dated 2022).

Tests used:
[1] = test system: genotype A, "Long" strain RSV; assay: RSV-A assay (CPE, ATPlite readout in Hep-2 cells); assay type: cell-based; conditions: human respiratory syncytial virus, HEp-2, Hep-2 cells, genotype A "Long" strain RSV, MOI 0.1; read-out: Human RSV-A (“Long” strain) EC50
Outline: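 Hep-2 cells (8,000/well) received 2-fold serial compound dilutions in duplicate and RSV Long strain at MOI 0.1. After 5 days' incubation, cell health was read as ATP by ATPlite luminescence, with virus-only and uninfected controls defining max and minimum CPE; EC50 reported.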

[2] = test system: recombinant HMPV CAN97-83 (MPV-GFP1); assay: HMPV antiviral assay (MPV-GFP1 eGFP fluorescence in Vero E6 cells); assay type: cell-based; conditions: human metapneumovirus, Vero C1008, 120 h, read-out: HMPV EC50
Method: HMPV antiviral activity was evaluated using a recombinant version of HMPV CAN97-83 engineered to contain the coding sequence for enhanced green fluorescence protein (eGFP) in the 3′ end of the virus genome (MPV-GFP1, ViraTree). Vero E6 cells ([…]) were seeded at a density of 12,000 cells/100 μL/well into 96-well cell plates one day prior to the assay. On the day of screening, the cell culture medium was aspirated from the wells and cells were washed twice with serum-free Eagle's Modified Essential Medium (EMEM, ATCC #) containing 1% penicillin-streptomycin (Invitrogen) (SF-EMEM). Cell washes were performed by dispensing 100 μL SF-EMEM per well and immediately aspirating the wash medium from the well. Following the second wash step, serum-free OptiMEM (Invitrogen, Cat No.) (SF-OptiMEM) containing 0.5 μg/mL TPCK-Trypsin (VENDOR) and 1% penicillin-streptomycin was added to the cells at 50 μL/well. Compounds were added into the 96-well plates using a JANUS automated liquid handling system (VENDOR). Compounds were initially diluted 1:50 into an intermediate 96-well plate containing SF-OptiMEM prior to transfer to the assay plate (25 μL/well). Each of the test compounds were tested in duplicate wells at final concentrations starting from 8 μM or 2 μM using ½ stepwise dilutions for a total of 8 points. Virus infection was performed by preparing a working stock of MPV-GFP1 at a multiplicity of infection (MOI) equal to 0.05/25 μL and aliquoting 25 μL of virus inoculum to the compound and positive control wells. SF-OptiMEM was added (25 μL/well) to the appropriate wells to serve as a virus-free negative control for the assay. The final DMSO concentration of all wells is 0.5%. Plates were incubated at 32° C., 5% CO2 for 5 days.
After 5 days incubation, eGFP fluorescence intensity was measured at […] using a Spectramax i3X plate reader (VENDOR). Percent viral inhibition was calculated using the following equation: y=[[…]−(XQ/XP)]×100 Where XQ is the fluorescence intensity measured in a well containing recombinant MPV-GFP1-infected, compound-treated cells and XP is the average fluorescence intensity measured in the wells containing untreated cells infected with recombinant virus. EC50 values were then calculated by non-linear regression using a four parameter curve logistic equation. The curve fit model employed was XLFit Dose Response One Site Model 200: y=(A+(B/(1+((x/C)^D)))) Where A is the minimum y value, B is the maximum y value, C is the log EC50 value, and D is the slope factor. […] EC50 ranges are as follows: A<0.5 μM; B>0.5 μM.

Compound | EC50 [1] [nM] | EC50 [2] [nM]
COc1cc(C(=O)NC[C@](O)(c2cc3c(c(-c4ccc(F)c(Cl)c4)n2)OC[C@]3(C)C(N)=O)C2CC2)cc2cc(Cl)cnc12 [Example 529] | < 200 | < 500
Cc1cncc(-c2cc(C(=O)NC[C@](O)(c3cc4c(c(-c5ccc(F)cc5)n3)OC[C@]4(C)C(N)=O)C(F)(F)F)ccc2OC2CC2)c1 [Example 103] | < 200 | > 500
COc1cc(C(=O)NC[C@](O)(c2cc3c(c(-c4ccc(F)cc4)n2)OC[C@]3(C)C(N)=O)C(F)(F)F)cc2ccc(C)nc12 [Example 222] | < 200 | < 500
C[C@]1(C(N)=O)COc2c1cc([C@@](O)(CNC(=O)c1cc(Cl)c3ncccc3c1)C1CC1)nc2-c1ccc(F)cc1 [Example 281] | < 200 | < 500
C[C@]1(C(N)=O)COc2c1cc([C@@](O)(CNC(=O)c1cc(Cl)c3nc(N)sc3c1)C(F)(F)F)nc2-c1ccc(F)cc1 [Example 633] | < 200 | < 500
C[C@@H](O)COc1ccc(C(=O)NC[C@](O)(c2cc3c(c(-c4ccc(F)cc4)n2)OC[C@]3(C)C(N)=O)C(F)(F)F)cc1OC1CC1 [Example 289] | < 200 | > 500
Cc1nc(-c2ccc(C(=O)NC[C@](O)(c3cc4c(c(-c5ccc(F)cc5)n3)OC[C@]4(C)C(N)=O)C(F)(F)F)cc2OC2CC2)co1 [Example 196] | > 200 | > 500
Cc1ccc2cc(C(=O)NC[C@](O)(c3cc4c(c(-c5ccc(F)cc5)n3)OC[C@]4(C)C(N)=O)C(F)(F)F)cc(OC3CC3)c2n1 [Example 223] | < 200 | < 500
Cc1cnc2c(NC(=O)C3(F)CC3)cc(C(=O)NC[C@](O)(c3cc4c(c(-c5ccc(F)cc5)n3)OC[C@]4(C)C(N)=O)C(F)(F)F)cc2c1 [Example 553] | < 200 | < 500
Cc1ncc(-c2cc(C(=O)NC[C@](O)(c3cc4c(c(-c5ccc(F)cc5)n3)OC[C@]4(C)C(N)=O)C(F)(F)F)ccc2OC2CC2)s1 [Example 126] | < 200 | > 500
CC(C)Oc1cc(C(=O)NC[C@](O)(c2cc3c(c(-c4ccc(F)cc4)n2)OC[C@]3(C)C(N)=O)C(F)(F)F)cc2sc(N)nc12 [Example 538] | < 200 | > 500
C[C@]1(C(N)=O)COc2c1cc([C@@](O)(CNC(=O)c1cc(OC3CC3)c3ncccc3c1)C(F)(F)F)nc2-c1ccc(F)c(C(F)(F)F)c1 [Example 85] | < 200 | < 500
C[C@]1(C(N)=O)COc2c1cc([C@](O)(CNC(=O)c1cc(OC3CC3)c3ncccc3c1)C(F)(F)F)nc2-c1ccc(C#N)cc1 [Example 83] | < 200 | > 500
COc1cc(C(=O)NC[C@](O)(c2cc3c(c(-c4ccc(F)cc4)n2)OC[C@]3(C)C(N)=O)C(F)(F)F)cc2ccncc12 [Example 361] | < 200 | > 500
C[C@]1(C(N)=O)COc2c1cc([C@@](O)(CNC(=O)c1ccc3[nH]ncc3c1)C(F)(F)F)nc2-c1ccc(F)cc1 [Example 588] | < 200 | > 500
C[C@]1(C(N)=O)COc2c1cc([C@@](O)(CNC(=O)c1ccc(OC3CC3)c(-c3cnccn3)c1)C(F)(F)F)nc2-c1ccc(F)cc1 [Example 114] | < 200 | > 500
CCCNC(=O)COc1cc(C(=O)NC[C@](O)(c2cc3c(c(-c4ccc(F)cc4)n2)OC[C@]3(C)C(N)=O)C(F)(F)F)cc2cccnc12 [Example 374] | < 200 | < 500
C[C@]1(C(N)=O)COc2c1cc([C@](O)(CNC(=O)c1cc(OC3CC3)c3ncccc3c1)C(F)(F)F)nc2-c1ccc(F)c(C#N)c1 [Example 84] | > 200 | > 500
C[C@]1(C(N)=O)COc2c1cc([C@@](O)(CNC(=O)c1ccc3cnccc3c1)C(F)(F)F)nc2-c1ccc(F)cc1 [Example 232] | < 200 | > 500
Cc1ncc(-c2cc(C(=O)NC[C@](O)(c3cc4c(c(-c5ccc(F)cc5)n3)OC[C@]4(C)C(N)=O)C(F)(F)F)ccc2OC2CC2)cn1 [Example 137] | < 200 | < 500

Compound | EC50 [1] [nM] | EC50 [2] [nM]
C[C@]1(C(N)=O)COc2c1cc([C@@](O)(CNC(=O)c1ccc(OC3CC3)c(C3CC3)c1)C(F)(F)F)nc2-c1ccc(F)cc1 [Example 123] | < 200 | > 500
COc1cc(C(=O)NC[C@](O)(c2cc3c(c(-c4ccc(F)cc4)n2)OC[C@]3(C)C(N)=O)C2CC2)cc2cc(C)cnc12 [Example 256] | < 200 | < 500
COc1cc(C(=O)NC[C@](C)(O)c2cc3c(c(-c4ccc(F)cc4)n2)OC[C@]3(C)C(N)=O)cc2cccnc12 [Example 219] | < 200 | > 500
C[C@]1(C(N)=O)COc2c1cc([C@@](O)(CNC(=O)c1cc(OC(F)F)c3nc(N)sc3c1)C1CC1)nc2-c1ccc(F)c(Cl)c1 [Example 540] | < 200 | < 500
CC(=O)Nc1cc(C(=O)NC[C@](O)(c2cc3c(c(-c4ccc(F)cc4)n2)OC[C@]3(C)C(N)=O)C(F)(F)F)cc2cccnc12 [Example 393] | < 200 | < 500
C[C@]1(C(N)=O)COc2c1cc([C@@](O)(CNC(=O)c1ccc(OC3CC3)c(OC3CC3)c1)C(F)(F)F)nc2-c1ccc(C(F)(F)F)cc1 [Example 93] | < 200 | > 500
C[C@]1(C(N)=O)COc2c1cc([C@@](O)(CNC(=O)c1cc(OCC(N)=O)c3ncccc3c1)C(F)(F)F)nc2-c1ccc(F)cc1 [Example 364] | < 200 | > 500
Cc1cnc2c(NC(=O)c3coc(C)n3)cc(C(=O)NC[C@](O)(c3cc4c(c(-c5ccc(F)cc5)n3)OC[C@]4(C)C(N)=O)C(F)(F)F)cc2c1 [Example 418] | < 200 | < 500
CC(C)(O)CNC(=O)[C@@]1(C)COc2c1cc([C@@](O)(CNC(=O)c1cc(OC3CC3)c3ncccc3c1)C(F)(F)F)nc2-c1ccc(F)cc1 [Example 484] | < 200 | < 500
C[C@]1(C(N)=O)COc2c1cc([C@@](O)(CNC(=O)c1ccc(OC3CC3)c(OC3CC3)c1)C(F)(F)F)nc2-c1ccc(F)c(C#N)c1 [Example 95] | < 200 | > 500
COc1cc(C(=O)NC[C@](O)(c2cc3c(c(-c4ccc(F)cc4)n2)OC[C@]3(C)CNC2(C)CC2)C(F)(F)F)cc2cccnc12 [Example 44] | < 200 | > 500
CC1(NC(=O)Nc2cc(C(=O)NC[C@](O)(c3cc4c(c(-c5ccc(F)cc5)n3)OC[C@]4(C)C(N)=O)C(F)(F)F)cc3cccnc23)CC1 [Example 411] | < 200 | < 500
COc1cc(C(=O)NC[C@](O)(c2cc3c(c(-c4ccc(F)cc4)n2)OC[C@]3(C)C(N)=O)C(F)(F)F)cc2cc(C(F)(F)F)cnc12 [Example 557] | < 200 | < 500
CCc1cnc2c(OC)cc(C(=O)NC[C@](O)(c3cc4c(c(-c5ccc(F)cc5)n3)OC[C@]4(C)C(N)=O)C(F)(F)F)cc2c1 [Example 262] | < 200 | > 500
Cc1ccc(-c2nc([C@@](O)(CNC(=O)c3ccc4nn(C)cc4c3)C(F)(F)F)cc3c2OC[C@]3(C)C(N)=O)cc1 [Example 641] | < 200 | > 500
Cc1cnc2c(Oc3ncccn3)cc(C(=O)NC[C@](O)(c3cc4c(c(-c5ccc(F)cc5)n3)OC[C@]4(C)C(N)=O)C(F)(F)F)cc2c1 [Example 615] | < 200 | > 500
C[C@]1(C(N)=O)COc2c1cc([C@](O)(CNC(=O)c1cc(OC3CC3)c3ncccc3c1)C(F)(F)F)nc2-c1csc2c(F)cccc12 [Example 81] | < 200 | < 500
COc1cc(C(=O)NC[C@](O)(c2cc3c(c(-c4ccc(F)cc4)n2)OC[C@]3(C)C(N)=O)C2CC2)cc2cc(C3CC3)cnc12 [Example 522] | < 200 | < 500
Cc1cnc2c(NC(=O)C3CC3)cc(C(=O)NC[C@](O)(c3cc4c(c(-c5ccc(F)cc5)n3)OC[C@]4(C)C(N)=O)C(F)(F)F)cc2c1 [Example 416] | < 200 | > 500
C[C@]1(C(N)=O)COc2c1cc([C@@](O)(CNC(=O)c1cc(O)c3ncccc3c1)C(F)(F)F)nc2-c1ccc(F)cc1 [Example 363] | – | < 500
